Data reported in patent US20210251963A1, “UREA DERIVATIVES FOR USE IN THE TREATMENT OF SUBJECTS WITH ELEVATED EXPRESSION AND/OR ACTIVITY OF SRPK1” (Scandion Oncology A/S, priority 2018, published 2021).
Like-named read-outs stand apart in the source and are kept apart here.

Assays:
Format in all cases: biochemical
SRPK1 = biological target: T1, SRPK1 (Homo sapiens, UniProt Q96SB4); assay: Premier Screen kinase activity screening and IC50 determination (33P ATP filter binding)
T1 construct: purchased MRC in Dundee (Premier Screen service)
Text: The kinase activity screening was done at MRC in Dundee. The screen was a so-called “Premier Screen” with 140 kinases. More specific information can be found here: http://www.kinase-screen.mrc.ac.uk/services/premier-screen
The method is based on a radioactive filter binding assay using 33P ATP (Hastie, et al 2006. Nat Protoc. 2006; 1(2):968-71; Bain, et al 2007. Biochem J. 2007 Dec. 15; 408(3):297-315). This method is sensitive, accurate and provides a direct measure of kinase enzyme activity. A concentration of 10 μM SCO-101 was used.
In the table below, the data is portrayed as the mean percentage activity of assay duplicates and a standard deviation. These percentage activities were calculated in comparison to DMSO controls. 10 μM SCO-101 reduced the activity of SRPK1 to 6% of the DMSO control.
This experiment was technically carried out as described in example 1, also done by MRC in Dundee. However, in this experiment 10 different concentrations of SCO-101 was applied in order to determine the half maximal inhibitory concentration (IC50). The following concentrations (in nM) were applied: 1.5, 5, 15, 50, 150, 500, 1500, 5000, […] and 50000. This experiment generated a dose response curve (FIG. 1), which confirmed the SCO-101 mediated inhibition of SRPK1. The IC50 value was determined to be 3.0 μM (Table 2).

ASK1 = biological target: T2, ASK1 (Homo sapiens, UniProt Q99683); assay: Premier Screen kinase activity screening (33P ATP filter binding); conditions: 10 μM SCO-101, mean of assay duplicates, read-out: Kinase activity (percentage of DMSO control)
T2 construct: purchased MRC in Dundee (Premier Screen service)
Summary of the method: (§1)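 Reported numbers are percent remaining kinase activity versus DMSO control (mean of duplicates, ± SD). They come from a radioactive 33P-ATP filter-binding assay run with 10 μM compound.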

BRK = biological target: T3, BRK (Homo sapiens, UniProt Q13882); assay: as above; conditions: 10 μM SCO-101, mean of assay duplicates, read-out: Kinase activity (percentage of DMSO control)
T3 construct: MRC in Dundee (screening service)
Summary of the method: as §1

BRSK1 = biological target: T4, BRSK1 (Homo sapiens, UniProt Q8TDC3); assay: as above; conditions: 10 μM SCO-101, mean of assay duplicates, read-out: Kinase activity (percentage of DMSO control)
T4 construct: purchased MRC in Dundee (Premier Screen service)
Summary of the method: as §1

BTK = biological target: T5, BTK (Homo sapiens, UniProt Q06187); assay: as above; conditions: 10 μM SCO-101, mean of assay duplicates, read-out: Kinase activity (percentage of DMSO control)
T5 construct: MRC in Dundee (screening service)
Summary of the method: as §1

CK1δ = biological target: T6, CK1δ (Homo sapiens, UniProt P48730); assay: as above; conditions: 10 μM SCO-101, mean of assay duplicates, read-out: Kinase activity (percentage of DMSO control)
T6 construct: purchased MRC Dundee, Premier Screen (contract screening service)
Summary of the method: as §1

CK2 = biological target: T7, CK2 (Homo sapiens, UniProt P68400); assay: as above; conditions: 10 μM SCO-101, mean of assay duplicates, read-out: Kinase activity (percentage of DMSO control)
T7 construct: purchased MRC Dundee, Premier Screen (contract screening service)
Summary of the method: as §1

CSK = biological target: T8, CSK (Homo sapiens, UniProt P41240); assay: as above; conditions: 10 μM SCO-101, mean of assay duplicates, read-out: Kinase activity (percentage of DMSO control)
T8 construct: purchased MRC Dundee, Premier Screen (contract screening service)
Summary of the method: as §1

DYRK3 = biological target: T9, DYRK3 (Homo sapiens, UniProt O43781); assay: as above; conditions: 10 μM SCO-101, mean of assay duplicates, read-out: Kinase activity (percentage of DMSO control)
T9 construct: purchased MRC in Dundee (Premier Screen service)
Summary of the method: as §1

EPH-B1 = biological target: T10, EPH-B1 (Homo sapiens, UniProt P54762); assay: as above; conditions: 10 μM SCO-101, mean of assay duplicates, read-out: Kinase activity (percentage of DMSO control)
T10 construct: purchased MRC in Dundee (Premier Screen service)
Summary of the method: as §1

EPH-B4 = biological target: T11, EPH-B4 (Homo sapiens, UniProt P54760); assay: as above; conditions: 10 μM SCO-101, mean of assay duplicates, read-out: Kinase activity (percentage of DMSO control)
T11 construct: MRC in Dundee (screening service)
Summary of the method: as §1

FGF-R1 = biological target: T12, FGF-R1 (Homo sapiens, UniProt P11362); assay: as above; conditions: 10 μM SCO-101, mean of assay duplicates, read-out: Kinase activity (percentage of DMSO control)
T12 construct: purchased MRC in Dundee (Premier Screen service)
Summary of the method: as §1

GCK = biological target: T13, GCK (Homo sapiens, UniProt Q12851); assay: as above; conditions: 10 μM SCO-101, mean of assay duplicates, read-out: Kinase activity (percentage of DMSO control)
T13 construct: MRC in Dundee (screening service)
Summary of the method: as §1

IKKe = biological target: T14, IKKe (Homo sapiens, UniProt Q14164); assay: as above; conditions: 10 μM SCO-101, mean of assay duplicates, read-out: Kinase activity (percentage of DMSO control)
T14 construct: purchased MRC in Dundee (Premier Screen service)
Summary of the method: as §1

IRAK1 = IRAK1 (Homo sapiens, UniProt P51617); assay: as above; conditions: 10 μM SCO-101, mean of assay duplicates, read-out: Kinase activity (percentage of DMSO control)
Summary of the method: as §1

JNK3 = biological target: T15, JNK3 (Homo sapiens, UniProt P53779); assay: as above; conditions: 10 μM SCO-101, mean of assay duplicates, read-out: Kinase activity (percentage of DMSO control)
T15 construct: purchased MRC Dundee, Premier Screen (contract screening service)
Summary of the method: as §1

MAP4K5 = biological target: T16, MAP4K5 (Homo sapiens, UniProt Q9Y4K4); assay: as above; conditions: 10 μM SCO-101, mean of assay duplicates, read-out: Kinase activity (percentage of DMSO control)
T16 construct: purchased MRC Dundee, Premier Screen (contract screening service)
Summary of the method: as §1

MARK1 = biological target: T17, MARK1 (Homo sapiens, UniProt Q9P0L2); assay: as above; conditions: 10 μM SCO-101, mean of assay duplicates, read-out: Kinase activity (percentage of DMSO control)
T17 construct: purchased MRC in Dundee (Premier Screen service)
Summary of the method: as §1

MARK3 = biological target: T18, MARK3 (Homo sapiens, UniProt P27448); assay: as above; conditions: 10 μM SCO-101, mean of assay duplicates, read-out: Kinase activity (percentage of DMSO control)
T18 construct: MRC Dundee (screening service)
Summary of the method: as §1

MEKK1 = biological target: T19, MEKK1 (Homo sapiens, UniProt Q13233); assay: as above; conditions: 10 μM SCO-101, mean of assay duplicates, read-out: Kinase activity (percentage of DMSO control)
T19 construct: purchased MRC Dundee, Premier Screen (contract screening service)
Summary of the method: as §1

MLK1 = biological target: T20, MLK1 (Homo sapiens, UniProt P80192); assay: as above; conditions: 10 μM SCO-101, mean of assay duplicates, read-out: Kinase activity (percentage of DMSO control)
T20 construct: MRC Dundee (screening service)
Summary of the method: as §1

NEK2a = biological target: T21, NEK2a (Homo sapiens, UniProt P51955); assay: as above; conditions: 10 μM SCO-101, mean of assay duplicates, read-out: Kinase activity (percentage of DMSO control)
T21 construct: purchased MRC in Dundee (Premier Screen service)
Summary of the method: as §1

PAK6 = PAK6 (Homo sapiens, UniProt Q9NQU5); assay: as above; conditions: 10 μM SCO-101, mean of assay duplicates, read-out: Kinase activity (percentage of DMSO control)
Summary of the method: as §1

PINK = biological target: T22, PINK (Tribolium castaneum, UniProt D6WMX4); assay: as above; conditions: 10 μM SCO-101, mean of assay duplicates, read-out: Kinase activity (percentage of DMSO control)
T22 construct: purchased MRC Dundee, Premier Screen (contract screening service)
Summary of the method: as §1

PKD1 = PKD1 (Homo sapiens, UniProt Q15139); assay: as above; conditions: 10 μM SCO-101, mean of assay duplicates, read-out: Kinase activity (percentage of DMSO control)
Summary of the method: as §1

PRK2 = PRK2 (Homo sapiens, UniProt Q16513); assay: as above; conditions: 10 μM SCO-101, mean of assay duplicates, read-out: Kinase activity (percentage of DMSO control)
Summary of the method: as §1

ROCK 2 = biological target: T23, ROCK 2 (Rattus norvegicus, UniProt Q62868); assay: as above; conditions: 10 μM SCO-101, mean of assay duplicates, read-out: Kinase activity (percentage of DMSO control)
T23 construct: MRC Dundee (screening service)
Summary of the method: as §1

SIK3 = biological target: T24, SIK3 (Homo sapiens, UniProt Q9Y2K2); assay: as above; conditions: 10 μM SCO-101, mean of assay duplicates, read-out: Kinase activity (percentage of DMSO control)
T24 construct: purchased MRC in Dundee (Premier Screen service)
Summary of the method: as §1

STK33 = biological target: T25, STK33 (Homo sapiens, UniProt Q9BYT3); assay: as above; conditions: 10 μM SCO-101, mean of assay duplicates, read-out: Kinase activity (percentage of DMSO control)
T25 construct: MRC Dundee (screening service)
Summary of the method: as §1

SmMLCK = biological target: T26, SmMLCK (Homo sapiens, UniProt Q15746); assay: as above; conditions: 10 μM SCO-101, mean of assay duplicates, read-out: Kinase activity (percentage of DMSO control)
T26 construct: purchased MRC in Dundee (Premier Screen service)
Summary of the method: as §1

TESK1 = biological target: T27, TESK1 (Homo sapiens, UniProt Q15569); assay: as above; conditions: 10 μM SCO-101, mean of assay duplicates, read-out: Kinase activity (percentage of DMSO control)
T27 construct: purchased MRC in Dundee (Premier Screen service)
Summary of the method: as §1

ULK2 = biological target: T28, ULK2 (Homo sapiens, UniProt Q8IYT8); assay: as above; conditions: 10 μM SCO-101, mean of assay duplicates, read-out: Kinase activity (percentage of DMSO control)
T28 construct: MRC Dundee (screening service)
Summary of the method: as §1

T1 sequence (Q96SB4 whole entry): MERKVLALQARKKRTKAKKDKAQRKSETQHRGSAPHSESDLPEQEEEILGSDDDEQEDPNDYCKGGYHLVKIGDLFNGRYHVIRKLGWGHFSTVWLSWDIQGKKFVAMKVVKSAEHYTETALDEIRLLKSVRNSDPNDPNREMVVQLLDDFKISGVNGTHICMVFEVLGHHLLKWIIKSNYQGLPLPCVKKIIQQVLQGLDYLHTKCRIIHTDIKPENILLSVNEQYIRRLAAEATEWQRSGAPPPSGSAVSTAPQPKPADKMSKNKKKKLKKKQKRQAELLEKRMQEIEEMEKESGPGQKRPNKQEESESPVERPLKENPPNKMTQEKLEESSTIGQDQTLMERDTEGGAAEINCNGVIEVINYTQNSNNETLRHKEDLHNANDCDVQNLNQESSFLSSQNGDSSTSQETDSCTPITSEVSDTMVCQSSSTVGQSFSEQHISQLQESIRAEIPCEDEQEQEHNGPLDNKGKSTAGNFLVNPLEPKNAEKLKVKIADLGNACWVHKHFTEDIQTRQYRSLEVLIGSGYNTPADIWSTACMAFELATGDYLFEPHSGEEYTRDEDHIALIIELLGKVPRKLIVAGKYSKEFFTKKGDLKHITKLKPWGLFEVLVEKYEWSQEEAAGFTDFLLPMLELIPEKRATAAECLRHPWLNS
T11 sequence (P54760 16-987, species assumed): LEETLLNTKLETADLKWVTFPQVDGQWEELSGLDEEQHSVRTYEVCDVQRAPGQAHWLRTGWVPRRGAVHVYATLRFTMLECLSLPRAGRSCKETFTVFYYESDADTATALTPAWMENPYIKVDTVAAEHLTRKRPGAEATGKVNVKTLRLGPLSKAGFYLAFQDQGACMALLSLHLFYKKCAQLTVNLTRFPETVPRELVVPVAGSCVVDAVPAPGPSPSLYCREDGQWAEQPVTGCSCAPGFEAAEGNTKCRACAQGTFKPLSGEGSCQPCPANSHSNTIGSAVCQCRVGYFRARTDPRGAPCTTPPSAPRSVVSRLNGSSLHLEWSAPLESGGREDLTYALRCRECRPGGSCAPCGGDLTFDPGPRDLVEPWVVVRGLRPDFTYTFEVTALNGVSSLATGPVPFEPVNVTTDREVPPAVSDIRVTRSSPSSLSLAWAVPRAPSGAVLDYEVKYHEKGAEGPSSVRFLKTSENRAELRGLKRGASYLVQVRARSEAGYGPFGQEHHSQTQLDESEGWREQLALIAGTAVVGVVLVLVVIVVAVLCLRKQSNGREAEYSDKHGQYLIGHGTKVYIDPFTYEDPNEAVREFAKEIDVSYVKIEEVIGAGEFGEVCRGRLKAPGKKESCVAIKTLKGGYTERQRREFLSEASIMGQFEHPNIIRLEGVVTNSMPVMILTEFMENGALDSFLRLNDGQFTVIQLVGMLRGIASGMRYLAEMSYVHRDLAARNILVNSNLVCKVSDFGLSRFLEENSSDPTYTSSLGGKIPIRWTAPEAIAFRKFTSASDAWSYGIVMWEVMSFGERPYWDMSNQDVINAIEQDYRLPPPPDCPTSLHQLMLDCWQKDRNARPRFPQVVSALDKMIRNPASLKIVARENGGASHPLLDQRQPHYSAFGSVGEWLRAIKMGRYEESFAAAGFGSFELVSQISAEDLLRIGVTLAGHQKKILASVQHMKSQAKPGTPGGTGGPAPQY
T6 sequence (P48730 whole entry): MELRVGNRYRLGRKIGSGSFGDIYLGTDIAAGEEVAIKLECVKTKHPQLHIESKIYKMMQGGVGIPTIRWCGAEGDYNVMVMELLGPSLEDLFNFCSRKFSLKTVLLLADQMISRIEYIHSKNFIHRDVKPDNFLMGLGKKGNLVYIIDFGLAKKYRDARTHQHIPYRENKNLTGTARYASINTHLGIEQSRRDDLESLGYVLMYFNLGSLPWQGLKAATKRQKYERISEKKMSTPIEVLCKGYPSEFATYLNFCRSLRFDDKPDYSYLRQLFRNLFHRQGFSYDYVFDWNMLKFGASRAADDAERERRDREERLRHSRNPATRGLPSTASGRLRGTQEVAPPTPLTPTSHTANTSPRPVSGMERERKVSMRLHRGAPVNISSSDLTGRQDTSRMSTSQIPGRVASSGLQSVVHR
T3 sequence (Q13882 whole entry, species assumed): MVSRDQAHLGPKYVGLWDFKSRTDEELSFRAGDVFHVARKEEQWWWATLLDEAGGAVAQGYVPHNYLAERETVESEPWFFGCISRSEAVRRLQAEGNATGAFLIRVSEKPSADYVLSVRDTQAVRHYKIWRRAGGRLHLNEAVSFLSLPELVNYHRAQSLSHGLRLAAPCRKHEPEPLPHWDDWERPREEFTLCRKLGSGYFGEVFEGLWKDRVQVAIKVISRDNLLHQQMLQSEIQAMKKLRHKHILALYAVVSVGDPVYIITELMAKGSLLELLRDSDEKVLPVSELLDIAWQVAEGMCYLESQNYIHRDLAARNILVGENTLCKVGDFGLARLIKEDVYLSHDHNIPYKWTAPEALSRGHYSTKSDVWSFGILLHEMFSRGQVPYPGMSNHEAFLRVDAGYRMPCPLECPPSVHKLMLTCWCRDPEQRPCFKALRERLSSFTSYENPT
T18 sequence (P27448 whole entry, species assumed): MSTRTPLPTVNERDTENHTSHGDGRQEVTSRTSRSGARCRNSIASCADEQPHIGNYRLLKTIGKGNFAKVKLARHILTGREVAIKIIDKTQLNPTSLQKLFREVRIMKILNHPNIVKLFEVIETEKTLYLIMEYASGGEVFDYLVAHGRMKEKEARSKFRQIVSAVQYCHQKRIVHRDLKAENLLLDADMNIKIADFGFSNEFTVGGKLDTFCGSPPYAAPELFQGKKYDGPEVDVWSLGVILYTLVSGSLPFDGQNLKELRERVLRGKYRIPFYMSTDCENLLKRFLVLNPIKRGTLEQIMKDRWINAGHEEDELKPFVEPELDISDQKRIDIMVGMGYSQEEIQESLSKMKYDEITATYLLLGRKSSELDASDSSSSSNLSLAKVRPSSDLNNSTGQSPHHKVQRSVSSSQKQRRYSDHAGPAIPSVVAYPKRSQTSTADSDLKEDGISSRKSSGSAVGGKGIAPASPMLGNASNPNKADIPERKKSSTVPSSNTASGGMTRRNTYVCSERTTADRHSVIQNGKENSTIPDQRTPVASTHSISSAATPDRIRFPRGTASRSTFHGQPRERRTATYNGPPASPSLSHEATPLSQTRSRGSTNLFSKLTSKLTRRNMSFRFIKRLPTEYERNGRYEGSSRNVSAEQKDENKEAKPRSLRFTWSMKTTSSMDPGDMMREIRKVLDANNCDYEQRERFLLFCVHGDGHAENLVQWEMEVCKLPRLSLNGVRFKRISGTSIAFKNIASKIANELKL
T27 sequence (Q15569 whole entry, species assumed): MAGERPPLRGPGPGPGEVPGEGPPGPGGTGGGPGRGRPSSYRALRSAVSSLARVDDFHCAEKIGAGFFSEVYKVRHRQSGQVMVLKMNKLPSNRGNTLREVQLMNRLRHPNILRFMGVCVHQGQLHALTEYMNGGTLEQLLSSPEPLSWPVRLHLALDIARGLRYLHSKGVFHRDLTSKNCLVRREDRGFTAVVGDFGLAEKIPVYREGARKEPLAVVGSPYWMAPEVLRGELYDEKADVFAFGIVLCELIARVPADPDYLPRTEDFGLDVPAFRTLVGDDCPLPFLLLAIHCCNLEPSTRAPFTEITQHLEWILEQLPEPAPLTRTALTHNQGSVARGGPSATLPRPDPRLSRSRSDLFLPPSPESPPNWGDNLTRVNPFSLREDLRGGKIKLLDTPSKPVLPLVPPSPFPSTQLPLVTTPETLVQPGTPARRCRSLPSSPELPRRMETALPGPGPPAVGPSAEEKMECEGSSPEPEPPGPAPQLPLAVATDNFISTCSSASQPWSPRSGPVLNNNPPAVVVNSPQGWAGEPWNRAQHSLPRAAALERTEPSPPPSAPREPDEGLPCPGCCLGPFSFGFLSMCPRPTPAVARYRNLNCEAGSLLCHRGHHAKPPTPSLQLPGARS
T7 sequence (P68400 whole entry): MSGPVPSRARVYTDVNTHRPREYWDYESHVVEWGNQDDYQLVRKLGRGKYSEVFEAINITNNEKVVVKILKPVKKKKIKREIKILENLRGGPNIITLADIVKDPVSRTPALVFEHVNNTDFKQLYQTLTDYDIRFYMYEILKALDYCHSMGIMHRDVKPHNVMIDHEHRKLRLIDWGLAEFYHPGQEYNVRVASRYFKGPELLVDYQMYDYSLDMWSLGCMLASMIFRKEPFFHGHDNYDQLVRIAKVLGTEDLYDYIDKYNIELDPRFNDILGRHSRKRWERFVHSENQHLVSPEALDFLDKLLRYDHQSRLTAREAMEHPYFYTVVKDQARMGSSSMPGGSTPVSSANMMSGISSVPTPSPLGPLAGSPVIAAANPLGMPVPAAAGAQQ
T22 sequence (D6WMX4 6-570): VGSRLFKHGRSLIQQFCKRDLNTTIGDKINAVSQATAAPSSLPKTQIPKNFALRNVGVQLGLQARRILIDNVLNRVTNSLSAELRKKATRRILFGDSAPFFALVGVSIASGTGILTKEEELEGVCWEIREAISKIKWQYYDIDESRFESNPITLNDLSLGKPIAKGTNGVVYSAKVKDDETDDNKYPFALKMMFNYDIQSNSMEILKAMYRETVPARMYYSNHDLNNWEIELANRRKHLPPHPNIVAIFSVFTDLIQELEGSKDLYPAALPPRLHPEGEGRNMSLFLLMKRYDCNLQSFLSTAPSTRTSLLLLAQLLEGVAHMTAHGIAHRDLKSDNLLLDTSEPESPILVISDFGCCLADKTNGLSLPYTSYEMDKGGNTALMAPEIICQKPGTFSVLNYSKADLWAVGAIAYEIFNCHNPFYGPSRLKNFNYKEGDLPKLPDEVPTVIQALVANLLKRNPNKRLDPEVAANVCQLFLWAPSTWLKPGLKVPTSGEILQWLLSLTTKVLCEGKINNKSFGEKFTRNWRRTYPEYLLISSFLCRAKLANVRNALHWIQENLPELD

O=C(Nc1cc(C(F)(F)F)cc(C(F)(F)F)c1)Nc1ccc(Br)cc1-c1nnn[nH]1 [SCO-101]
remaining activity at 10 µM (SRPK1; 10 μM SCO-101, mean of assay duplicates, read-out: Kinase activity (percentage of DMSO control)): 6%
IC50 (SRPK1; first determination, 10 concentrations, read-out: IC50): 2.9 µM
IC50 (SRPK1; mean of two determinations, read-out: mean IC50): 3 µM
IC50 (SRPK1; second determination, 10 concentrations, read-out: IC50): 3 µM
remaining activity at 10 µM (ASK1): 136%
remaining activity at 10 µM (BRK): 94%
remaining activity at 10 µM (BRSK1): 124%
remaining activity at 10 µM (BTK): 78%
remaining activity at 10 µM (CK1δ): 107%
remaining activity at 10 µM (CK2): 107%
remaining activity at 10 µM (CSK): 106%
remaining activity at 10 µM (DYRK3): 59%
remaining activity at 10 µM (EPH-B1): 124%
remaining activity at 10 µM (EPH-B4): 86%
remaining activity at 10 µM (FGF-R1): 123%
remaining activity at 10 µM (GCK): 92%
remaining activity at 10 µM (IKKe): 75%
remaining activity at 10 µM (IRAK1): 115%
remaining activity at 10 µM (JNK3): 112%
remaining activity at 10 µM (MAP4K5): 108%
remaining activity at 10 µM (MARK1): 74%
remaining activity at 10 µM (MARK3): 99%
remaining activity at 10 µM (MEKK1): 105%
remaining activity at 10 µM (MLK1): 98%
remaining activity at 10 µM (NEK2a): 134%
remaining activity at 10 µM (PAK6): 123%
remaining activity at 10 µM (PINK): 104%
remaining activity at 10 µM (PKD1): 122%
remaining activity at 10 µM (PRK2): 120%
remaining activity at 10 µM (ROCK 2): 101%
remaining activity at 10 µM (SIK3): 39%
remaining activity at 10 µM (STK33): 100%
remaining activity at 10 µM (SmMLCK): 77%
remaining activity at 10 µM (TESK1): 54%
remaining activity at 10 µM (ULK2): 95%
